Assay results reported in PMC12410723, “Structure-function studies of Vibrio cholerae quorum-sensing receptor CqsR signal recognition” (PLOS Pathogens, 2025).

Assays:
[1] = target: CqsR periplasmic domain (CqsRp) (Vibrio cholerae, UniProt Q9KR16); conditions: MST binding studies, summary of Fig 4
[2] = test system: WT CqsR; conditions: WT CqsR strain, exogenously added ethanolamine
[3] = test system: CqsR-Y169A; conditions: CqsR-Y169A strain, exogenously added ethanolamine
[4] = test system: CqsR-T196A; conditions: CqsR-T196A strain, exogenously added ethanolamine
[5] = test system: CqsR-W151A; conditions: CqsR-W151A strain, exogenously added ethanolamine
[6] = test system: CqsR-D171A; conditions: CqsR-D171A strain, exogenously added ethanolamine
[7] = test system: CqsR-D198N; conditions: CqsR-D198N strain, exogenously added ethanolamine
[8] = test system: CqsR; conditions: in vivo / in culture, high-cell-density phenotype; cited from earlier work
[9] = test system: CqsRp; conditions: thermal unfolding; cited from earlier work

SMILES: CCC(N)CO (stereo not shown) [2-amino-1-butanol]
- CqsR binding (in words) [1]: Weak CqsR binding

SMILES: CC[C@H](N)CO [(S)-(+)-2-amino-1-butanol]
- CqsR binding (in words) [1]: Weak CqsR binding

SMILES: C[C@H](N)C(=O)O [Alanine, alanine]
- CqsR binding (in words) [1]: not tolerated

SMILES: NCCO [Ethanolamine, ethanolamine]
- qrr4 transcription (bioluminescence) [2]: reduced in a dose-dependent manner
- qrr4 transcription (bioluminescence) [3]: reduced to a level comparable to that of the WT
- qrr4 transcription (bioluminescence) [4]: reduced to a level comparable to that of the WT
- qrr4 transcription (bioluminescence) [5]: intermediate phenotype
- qrr4 transcription (bioluminescence) [6]: intermediate phenotype
- qrr4 transcription (bioluminescence) [7]: completely irresponsive
- CqsR signaling agonism [8]: acted as CqsR signaling agonists

SMILES: OCCO [Ethylene glycol, ethylene glycol]
- CqsR binding (in words) [1]: No binding

SMILES: NCCN [Ethylenediamine, ethylenediamine]
- CqsR binding (in words) [1]: Weak CqsR binding

SMILES: OCC(O)CO [Glycerol, glycerol]
- CqsR binding (in words) [1]: No binding

SMILES: NCC(=O)O [Glycine, glycine]
- CqsR binding (in words) [1]: not tolerated

SMILES: C[C@H](N)CO [L-alaninol]
- CqsRp melting temperature [9]: increased

SMILES: NC(CO)CO [Serinol, serinol]
- CqsRp melting temperature [9]: increased

SMILES: NC(CO)(CO)CO [Tris, tris]
- CqsR binding (in words) [1]: Weak CqsR binding

SMILES: NCCS [cysteamine]
- CqsR binding (in words) [1]: not tolerated

SMILES: NCC(N)=O [glycinamide]
- CqsR binding (in words) [1]: not tolerated

SMILES: CCC(N)CC [pentan-3-amine]
- CqsR binding (in words) [1]: not tolerated

SMILES: CCCO [propanol]
- CqsR binding (in words) [1]: No binding

SMILES: CCCN [propylamine]
- CqsR binding (in words) [1]: not tolerated
